Experimental data: patent US20100099559A1, “Method for protecting soybeans from being infected by fungi” (BASF SE, priority 2007, published 2010)

Tested on: Cercospora sojina
Assay: Activity against Cercospora sojina, microtiter plate test
Format: cell-based
Conditions: single active, absorption at 405 nm on day 7 after inoculation, 18° C.
Procedure: The expected efficacies of active compound combinations were determined using Colby's formula (Colby, S. R. “Calculating synergistic and antagonistic responses of herbicide combinations”, Weeds, 15, pp. 20-22, 1967) and compared with the observed efficacies. E=x+y−x·y/100 Colby's formula • E expected efficacy, expressed in % of the untreated control, when using the mixture of the active compounds A and B at the concentrations a and b • x efficacy, expressed in % of the untreated control, when using the active compound A at the concentration a • y efficacy, expressed in % of the untreated control, when using the active compound B at the concentration b A solution containing 10 mg a.i. per 1 ml dimethyl sulfoxide is prepared. The stock solution is pipetted onto a microtiter plate (MTP) and diluted with water. In a second step a spore suspension of Cercospora sojina (containing a biomalt-based aqueous nutrient medium) was given to the stated active compound concentration. The plates were placed in a water vapor-saturated chamber at temperatures of 18° C. Using an absorption photometer, the MTPs were measured at 405 nm on day 7 after the inoculation. The measured parameters were compared to the growth of the active compound-free control variant and the fungus- and active compound-free blank value to determine the relative growth in % of the pathogens in the individual active compounds.

Structure (SMILES)	Observed activity (% infection) (concentration 0.063 ppm) [%]	Observed activity (% infection) (concentration 0.016 ppm) [%]
Fc1ccc([C@]2(Cn3cncn3)O[C@H]2c2ccccc2Cl)cc1 (racemic) [epoxiconazole, reference compound]	0	–
Cn1cc(C(=O)Nc2ccccc2[C@@H]2C[C@H]2C2CC2)c(C(F)F)n1 [Compound (Ia), N-(trans-2-bicycloprop-2-ylphenyl)-3-difluoromethyl-1-methyl-1H-pyrazole-4-carboxamide]	31	0
